Source: patent publication US20040230257A1, “Enhanced bioavailability of nutrients, pharmaceutical agents, and other bioactive substances through laser resonant homogenization or modification of molecular shape or crystalline form” (priority 2003, published 2004)
Where a name gives a salt, the structure may show the parent alone.

Assays:
[1] = system: murine macrophages; test: Nitrite (nitric oxide) production by LPS-stimulated murine macrophages given arginine samples; format: cell-based; conditions: arginine 120 mcg/ml, LPS 1 ng/ml, 24 hours; for Mean O.D. ± S.D. (optical density at 540 nm, a measure of nitrite concentration): 12 wells
Procedure: Paracelsian in Ithaca, N.Y., an outside independent lab, performed the following bioassays. Each arginine sample was added to 12 wells of murine macrophages to achieve a concentration of 120 mcg/ml. This is the estimated serum concentration for a 70 Kg person after ingesting a 6-gram serving of arginine, a level observed in numerous clinical studies to be associated with a wide range of physiologic benefits. LPS at 1 ng/ml was added to each well and the cells were incubated for 24 hours. The nitrite concentration in each well's supernatant was determined 24 hours after initiation of treatment as a relative measure of nitric oxide production.
The results are listed in order of relative nitrite production, from greatest to least. The first column is the Arg #, the second the mean plus or minus the standard deviation of the optical density measurement at 540 nm, a measure of nitrite concentration, and the third column the relative production of nitrites expressed in micrograms per ml as determined from optical density.

[2] = Case report: lupus patient on the laser treated methylation formula; format: in vivo, human; conditions: before entry, only treatment
Excerpt: The exemplary patient had suffered with relapsing lupus for several years. At the time of entry into the methylation formula studies of EXAMPLE 6, they had experienced a relapse of severe disease for several months.
Their disease was characterized by exquisitely tender blistering and ulcerating lesions on their hands and feet that made it difficult to walk or open a cabinet door without severe pain. Their skin was pallid, they were extremely fatigued with a chronic low energy state, and had suffered extensive hair loss. Their sedimentation rate, a marker for systemic inflammation, was highly elevated at 99, whereas a normal level would be 0-30. […] They declined the use of corticosteroids due to severe treatment side effects during a prior relapse.
The subject was randomized to the placebo control group and for 3 months had no improvement in condition. In the second phase of the study, they were placed on a high dose of the methylation formula of 6 grams of laser treated betaine plus cofactors daily. […]
The subject continued on a lower dose of the laser treated methylation formula for 5 more months, reduced to 1-2 grams of the laser treated betaine plus cofactors. […] At the end of fifth month of lower dose treatment, their sedimentation rate had dropped to the very low normal value of 1, the lowest level ever recorded for them.

[3] = X-ray crystallography of control vs laser treated L-arginine hydrochloride; format: physicochemical; conditions: crystallized from deionized water by slow evaporation at room temperature
Procedure: Each sample was dissolved in 0.50 grams of deionized water. The control sample was crystallized by slow evaporation at room temperature over 24 hours. The average room temperature was approximately 26 degrees Centigrade. The average ambient humidity was approximately 33%.
The treated sample was crystallized under the same conditions with the addition of pulsed modulated energy at 532 nm as described for Arg #1 in Example 2 above. The beam was passed through the center of the meniscus of solution in the container.
Crystals from the control and treated samples were selected for further study. Selected crystals all had dimensions of approximately 0.5 mm on a side or less as per the latest standards in the art. The crystal structures were solved using a SMART X-ray diffraction analytical device.

[4] = betaine 9 grams daily plus vitamin B12, a liver extract and a creatine precursor; placebo 25%; cited from earlier work
[5] = animal studies; cited from earlier work
[6] = X-ray crystallography of control vs laser treated betaine hydrochloride; format: physicochemical; conditions: crystals from deionized water
Procedure: The control and treated betaine hydrochloride samples shown in FIGS. 5A, 5B, 5C, 5D, and 5E were prepared by dissolving 0.6 grams of betaine hydrochloride in 3.0 grams of deionized water and placing the solutions thus prepared in 10×35 mm Petri dishes. Crystallization was done in open containers by slow evaporation at room temperature, a procedure often used in the art of crystallography. Ambient humidity was maintained at or below 30 percent with laboratory dehumidifiers. The treated betaine hydrochloride was irradiated with a 670 nm continuous wave diode laser modulated at 10 MHz with a primary beam power of 2.7 milliwatts that was phase conjugated to 1.35 milliwatts. The 5 mm diameter beam was passed through the middle of fluid meniscus of the treated solution during the entire crystallization process. The control untreated betaine hydrochloride was prepared under the same conditions, except that it was not irradiated with the sparse constructive node generating laser system.
X-ray crystallography was performed using a SMART device made by Siemens. FIGS. 5C and 5D show the intermolecular hydrogen bonding of control versus laser treated betaine hydrochloride, respectively. […]

[7] = Pilot test: blood SAMe level and knee pain in a subject with osteoarthritis; format: in vivo, human
Excerpt: As a pilot test, a subject with osteoarthritis had blood SAMe levels measured while taking SAMe and then while taking a betaine formulation. […] On this level of SAMe ingestion for three months, their blood SAMe level was 4.9 (the normal range for this lab is 4.2-8.2). At this time, SAMe was discontinued and they started a methylation formula with one gram of laser treated betaine plus laser treated metabolic cofactors. The betaine and metabolic co-factors were in the same ratios as in the double blind clinical study formula to be described below.
In particular, the dual effect of raising SAMe while reducing homocysteine would be expected to preserve and improve the condition of DNA methylation, as SAMe is the exclusive methyl group donor for DNA methylation.

[8] = cited from earlier work

Question: Which “Mean O.D. ± S.D. (optical density at 540 nm, a measure of nitrite concentration)” value [1] does the source give for `N=C(N)NCCC[C@H](N)C(=O)O` [Arg #4, L-arginine] here?
Answer: .224 ± .006

Question: Which results are given for `N=C(N)NCCC[C@H](N)C(=O)O` [Arg #3, L-arginine]?
Answer: nitric oxide byproducts produced compared with control untreated Arg #4 [1]: statistically significantly more; Mean O.D. ± S.D. (optical density at 540 nm, a measure of nitrite concentration) [1]: .232 ± .010

Question: What does the source list for `N=C(N)NCCC[C@H](N)C(=O)O` [Arg #2, L-arginine]?
Answer: nitric oxide byproducts produced compared with control untreated Arg #4 [1]: statistically significantly less; Mean O.D. ± S.D. (optical density at 540 nm, a measure of nitrite concentration) [1]: .219 ± .008

Question: Which “relief of lupus symptoms” value [2] does the source give for `CCN(CCO)CCCC(C)Nc1ccnc2cc(Cl)ccc12` (stereo not drawn) [Plaquenil] here?
Answer: did little to relieve their symptoms

Question: For `Cl.N=C(N)NCCC[C@H](N)C(=O)O` [laser treated L-arginine hydrochloride, L-arginine hydrochloride], which “crystal form / water in the crystal lattice” value [3] is on record?
Answer: free of water in the crystal lattice

Question: Which results are given for `C[N+](C)(C)CC(=O)O` [betaine, N,N,N-trimethylglycine]?
Answer: mortality after one year [4]: no mortality; liver SAMe levels [5]: up to fourfold

Question: With `C[N+](C)(C)CC(=O)O` [treated betaine hydrochloride, betaine hydrochloride] as the molecule, how does the “intermolecular hydrogen bonds per molecule” value [6] read?
Answer: 3

Question: For `Cl.N=C(N)NCCC[C@H](N)C(=O)O` [control L-arginine hydrochloride, L-arginine hydrochloride], which “crystal form / water in the crystal lattice” value [3] is on record?
Answer: monohydrated crystal

Question: Which “intermolecular hydrogen bonds per molecule” value [6] does the source give for `C[N+](C)(C)CC(=O)O` [untreated betaine hydrochloride, betaine hydrochloride] here?
Answer: 4

Question: Which results are given for `N=C(N)NCCC[C@H](N)C(=O)O` [Arg #1, L-arginine]?
Answer: nitric oxide byproducts produced compared with control untreated Arg #4 [1]: statistically significantly less; Mean O.D. ± S.D. (optical density at 540 nm, a measure of nitrite concentration) [1]: .215 ± .007

Question: Which “blood SAMe level” value ([7]; 800 mg of SAMe daily for three months, normal range 4.2-8.2) does the source give for `C[S+](CC[C@H](N)C(=O)[O-])C[C@H]1O[C@@H](n2cnc3c(N)ncnc32)[C@H](O)[C@@H]1O` (stereo partly drawn) [SAMe, S-adenosyl-methionine] here?
Answer: 4.9

Question: What about the knee pain ([7]; SAMe 800 mg daily, formula with one gram laser treated betaine for one month) of the same molecule?
Answer: moderate degree of relief

Question: And the anti-depressant effects ([8]; 1600 mg per day)?
Answer: comparable to tricyclic anti-depressant drugs

Question: What about the “time to anti-depressant effects” value ([8]; tricyclic medications 4-6 weeks) of the same molecule?
Answer: within one week
